Source: BindingDB's records for doi:10.1021/jm00164a002 (Syntex Research, 1990)

Target: T1, Neutrophil elastase (Homo sapiens, UniProt P08246)
T1 sequence (P08246 whole entry): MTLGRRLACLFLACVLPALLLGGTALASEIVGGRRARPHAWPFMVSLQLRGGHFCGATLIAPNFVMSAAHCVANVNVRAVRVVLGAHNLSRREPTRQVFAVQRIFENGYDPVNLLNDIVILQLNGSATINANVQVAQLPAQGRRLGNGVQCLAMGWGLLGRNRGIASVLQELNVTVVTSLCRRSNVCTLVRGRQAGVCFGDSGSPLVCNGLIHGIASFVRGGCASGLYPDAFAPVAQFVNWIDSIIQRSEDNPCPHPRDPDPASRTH
Assay: Component deacylation rate constant for interaction with human leukocyte elastase
Settings: for kon: read-out: kon (M-1-s-1)

| Compound | koff [s⁻¹] | kon [M⁻¹ s⁻¹] | Ki [nM] |
| --- | --- | --- | --- |
| CCSc1nc2cccc(C)c2c(=O)o1 | 0.00141 | 1.51e+06 |  |
| COC(=O)[C@@H](CC(C)C)Nc1nc2ccccc2c(=O)o1 | 0.00138 | 39800 | 39.8 |
| COC(=O)[C@H](CC(C)C)Nc1nc2ccccc2c(=O)o1 | 0.000389 | 2290 | 159 |
| COc1cc2nc(SCc3c[nH]cn3)oc(=O)c2cc1OC | 0.00759 | 6920 | 1000 |
| O=c1oc(/C=C/c2ccccc2)nc2ccccc12 | 0.00316 | 389 |  |
| COc1cc(C)c2c(=O)oc(NC(C)C)nc2c1 | 0.000794 | 20900 |  |
| CC(C)C[C@H](NC(=O)C1CCCN1c1nc2ccccc2c(=O)o1)C(N)=O (some centres not stated) | 0.000324 | 15100 |  |
| Cc1cc(N)cc2nc(NC(C)C)oc(=O)c12 | 1.78e-05 | 229 |  |
| COC(=O)[C@H](Cc1ccc(O)cc1)Nc1nc2ccccc2c(=O)o1 | 0.000851 | 1900 |  |
| Cc1cc(C)c2c(=O)oc(NC(C)C)nc2c1 | 1.51e-05 | 2570 | 6.31 |
| CCC(C)CNc1nc2cccc(C)c2c(=O)o1 (configuration not stated) | 7.41e-05 | 112 |  |
| CC(C)C[C@H](NC(=O)[C@@H]1CCCN1c1nc2ccccc2c(=O)o1)C(=O)NCC(N)=O | 0.000229 | 11000 |  |
| CCc1cccc2c(=O)oc(NC(C)C)nc12 | 0.024 | 24000 |  |
| CCSc1nc2cc(OC)c(OC)cc2c(=O)o1 |  | 100000 |  |
| Cc1cccc2nc(OCC(C)C)oc(=O)c12 | 1.12e-05 | 7080 |  |
| Cc1cccc2nc(C(F)(F)F)oc(=O)c12 | 0.00371 | 129000 | 31.6 |
| CCCCNc1nc2cc(N)ccc2c(=O)o1 | 0.00182 | 2820 |  |
| CCOc1nc2cc(N(C)C)ccc2c(=O)o1 | 1.41e-05 | 2880 |  |
| COc1cc2nc(SCc3ccccc3)oc(=O)c2cc1OC | 0.0123 | 5750 | 2000 |

| Compound | koff [s⁻¹] | kon [M⁻¹ s⁻¹] | Ki [nM] |
| --- | --- | --- | --- |
| CCCC(C)Nc1nc2cccc(C)c2c(=O)o1 (configuration not stated) | 0.00371 | 5010 | 794 |
| CC(C)Cc1nc2ccccc2c(=O)o1 |  | 20000 |  |
| C/C=C/c1cccc2nc(OCC)oc(=O)c12 | 6.61e-05 | 347000 |  |
| CCSc1nc2c(C)cccc2c(=O)o1 |  | 2e+06 |  |
| CCCc1cccc2nc(OCC)oc(=O)c12 | 7.08e-05 | 309000 |  |
| O=c1oc(C(F)(F)F)nc2ccccc12 |  | 100000 | 159 |
| CCOc1nc2cccc(C(Br)Br)c2c(=O)o1 | 0.00468 | 1e+07 |  |
| CCCNC(=O)Nc1ccc2c(=O)oc(NC(C)C)nc2c1 | 0.017 | 12600 |  |
| CCC(CC)Nc1nc2cccc(C)c2c(=O)o1 | 0.00562 | 7760 | 794 |
| CCSc1nc2ccc(C)cc2c(=O)o1 |  | 1e+06 | 159 |
| Cc1cc(N(C)C)cc2nc(NC(C)C)oc(=O)c12 | 0.000129 | 102 |  |
| NC(=O)[C@H](Cc1ccccc1)NC(=O)[C@@H]1CCCN1c1nc2ccccc2c(=O)o1 | 0.000537 | 14400 | 39.8 |
| O=c1oc(NCCc2ccccc2)nc2ccccc12 | 0.00191 | 1120 | 1590 |
| CSc1nc2cccc(C)c2c(=O)o1 | 0.000355 | 251000 |  |
| CC(C)Nc1nc2cc(N(C)C)ccc2c(=O)o1 | 0.000479 | 1000 |  |
| CCOC(=O)[C@H](C)Nc1nc2ccccc2c(=O)o1 | 0.00224 | 2570 | 794 |
| CC(C)(C)c1nc2ccccc2c(=O)o1 |  | 10000 |  |
| CC(C)CN(CC(C)C)c1nc2ccccc2c(=O)o1 | 0.000977 | 151 |  |
| Cc1nc2c(N)cccc2c(=O)o1 |  | 2000 |  |

| Compound | koff [s⁻¹] | kon [M⁻¹ s⁻¹] | Ki [nM] |
| --- | --- | --- | --- |
| CC(=O)NCc1nc2ccccc2c(=O)o1 | 0.00132 | 174 |  |
| O=c1oc(C(F)(F)C(F)(F)C(F)(F)F)nc2ccccc12 |  | 10000 | 100 |
| NC(=O)[C@H](Cc1ccccc1)Nc1nc2ccccc2c(=O)o1 | 0.00038 | 1200 |  |
| COC(=O)[C@H](CC(C)C)NC(=O)[C@H](CC(C)C)Nc1nc2cc(C)cc(C)c2c(=O)o1 |  | 1260 |  |
| CCCCN(CCCC)c1nc2ccccc2c(=O)o1 | 0.00123 | 269 | 5010 |
| CCCc1cc(N(C)C)cc2nc(NC(C)C)oc(=O)c12 | 0.000182 | 646 |  |
| CCSc1nc2ccc(NC(C)=O)cc2c(=O)o1 |  | 10000 | 1590 |
| Cc1cccc2c(=O)oc(NC(C)C)nc12 |  |  | 631 |
| Cc1ccc2nc(C)oc(=O)c2c1 |  |  | 31600 |
| O=c1oc(C(F)(F)C(F)(F)F)nc2ccccc12 |  |  | 100 |
| CCCCNc1nc2cccc(CC)c2c(=O)o1 [2-Butylamino-5-ethyl-benzo[d][1,3]oxazin-4-one] | 0.000537 | 129000 |  |
| CCCCNc1nc2ccccc2c(=O)o1 [2-Butylamino-benzo[d][1,3]oxazin-4-one] |  |  | 79.4 |
| Cc1cccc2nc(NC(C)C)oc(=O)c12 [2-Isopropylamino-5-methyl-benzo[d][1,3]oxazin-4-one] |  |  | 1.58 |
| CC(C)Nc1nc2ccccc2c(=O)o1 [2-Isopropylamino-benzo[d][1,3]oxazin-4-one] | 0.00309 | 58900 |  |
| O=c1oc(-c2ccccc2)nc2ccccc12 [2-Phenyl-4H-3,1-benzoxazin-4-one (3)] |  | 10000 |  |
| CCCNc1nc2ccccc2c(=O)o1 [2-Propylamino-benzo[d][1,3]oxazin-4-one] |  |  | 100 |
| CNc1nc2cccc(C)c2c(=O)o1 [5-Methyl-2-methylamino-benzo[d][1,3]oxazin-4-one] | 0.151 | 4900 |  |
| CCCNc1nc2cccc(C)c2c(=O)o1 [5-Methyl-2-propylamino-benzo[d][1,3]oxazin-4-one] | 0.000339 | 56200 | 6.31 |
